≈ marks a conversion by molar mass, not a printed value. Like-named read-outs stand apart in the source and are kept apart here.
Tests used:
2,2,15 = test: three days cytotoxicity bioassay against 2,2,15; assay type: cell-based, human; settings: for IC50: 72 h, read-out: Cytotoxicity IC50 2,2,15
From the text: Adriamycin was used as a standard.

Hep G2 = test: three days cytotoxicity bioassay against Hep G2; settings: for IC50: Homo sapiens, HepG2, 72 h, read-out: Cytotoxicity IC50 Hep G2; for Cytotoxicity IC50 Hep G2: human hepatoma cell line Hep G2, three days bioassay
[1] = human hepatoma cell line 2,2,15, three days bioassay

| Compound | IC50 (Hep G2) [mg/L] | Cytotoxicity IC50 2,2,15 (2,2,15; [1]) [mg/L] | Cytotoxicity IC50 Hep G2 (Hep G2) [mg/L] | also measured |
| --- | --- | --- | --- | --- |
| COc1cccc2c1C(=O)c1c(O)c3c(c(O)c1C2=O)C[C@@](O)(C(=O)CO)C[C@@H]3O[C@H]1C[C@H](N)[C@H](O)[C@H](C)O1 [Adriamycin, reference compound] | 0.241 (≈ 0.443 µM) | – | – | IC50 (2,2,15; [1]): 0.45 mg/L (≈ 0.828 µM) |
| CCCCCCCCCCCC[C@@H](O)[C@H]1CC[C@@H]([C@@H](O)CCCCC(=O)CCCCCCCC2=C[C@H](C)OC2=O)O1 [Corossolone (12), Corossolone, reference compound] | 0.48 (≈ 0.829 µM) | – | – | IC50 (2,2,15; Homo sapiens): 0.284 mg/L (≈ 0.491 µM) |
| CCCCCCCCCCCCCC[C@@H](O)[C@H]1CC[C@H]([C@H](O)CC[C@H](O)CCCCCCCC2=C[C@H](C)OC2=O)O1 [Longifolicin (10), Longifolicin, reference compound] | 0.000404 (≈ 0.000695 µM) | – | – | IC50 (2,2,15; [1]): 0.0049 mg/L (≈ 0.00844 µM) |
| CCCCCC(O)C(O)CCCCCC[C@@H](O)[C@H]1CC[C@H](CCCCCCCCCC[C@@H](O)CC2=C[C@H](C)OC2=O)O1 (some centres unmarked) [Muricin A (1), Muricin A] | – | 0.00513 | 5.04 | times more potent than muricin B against Hep G2 (Hep G2; muricin A (4R-OH) compared with muricin B (4S-OH), Hep G2): 2.5 times |
| CCCCCC(O)C(O)CCCCCC[C@H](O)[C@@H]1CC[C@H](CCCCCCCCCC[C@H](O)CC2=C[C@H](C)OC2=O)O1 (some centres unmarked) [Muricin B (2), Muricin B] | – | 0.00429 | 1.78 | – |
| CCCCCCCC(O)C(O)CC[C@H](O)[C@@H]1CC[C@H](CCCCCCCCCCCC[C@@H](O)CC2=C[C@H](C)OC2=O)O1 (some centres unmarked) [Muricin C (3), Muricin C] | – | 0.00387 | 0.499 | – |
| CCCCCCCC(O)C(O)CC[C@H](O)[C@@H]1CC[C@@H](CCCCCCCCCC[C@@H](O)CC2=C[C@H](C)OC2=O)O1 (some centres unmarked) [Muricin D (4), Muricin D] | – | 0.048 | 0.00066 | – |
| CCCCC(O)C(O)C/C=C\CC[C@H](O)[C@@H]1CC[C@@H](CCCCCCCCCCCC[C@@H](O)CC2=C[C@H](C)OC2=O)O1 (some centres unmarked) [Muricin F (6), Muricin F] | – | 0.00386 | 0.0428 | cytotoxicity compared with muricin C against 2,2,15 (2,2,15; comparison in words, 2,2,15): more cytotoxic than muricin C; cytotoxicity compared with muricin C against Hep G2 (Hep G2; comparison in words, Hep G2): more cytotoxic than muricin C |
| Corossolin [Corossolin (11), reference compound] | – | 0.234 | – | – |
